From patent US12383545B1, “Treatment of migraine” (priority 2018, dated 2025)
Values joined by “and” are separate entries in the source; they are usually repeats but may differ in a detail not shown here. Equal entries are not always repeated.

System: participants with episodic migraine
Assay: Study A: phase 3 randomized double-blind placebo-controlled 12-week trial, eDiary efficacy (monthly migraine days, headache days, acute medication use days, responder rates)
Format: in vivo, human
Settings: for Change from baseline in mean monthly acute medication use days, LS mean change (SE) / Change from baseline in mean monthly headache days, LS mean change (SE) / Change from baseline in mean monthly migraine days, LS mean change (SE) / Mean monthly acute medication use days, LSMD vs. placebo (95% CI) / Mean monthly headache days, LSMD vs. placebo (95% CI) / Mean monthly migraine days, LSMD vs. placebo (95% CI): across 12-week treatment period; for Change from baseline in mean monthly acute medication use days, LS mean change (SE) / Change from baseline in mean monthly headache days, LS mean change (SE) / Change from baseline in mean monthly migraine days, LS mean change (SE) / Mean monthly acute medication use days, LSMD vs. placebo (95% CI) / Mean monthly headache days, LSMD vs. placebo (95% CI) / Mean monthly migraine days, LSMD vs. placebo (95% CI) / ≥50% reduction in 3-month average of monthly migraine days, odds ratio vs. placebo (95% CI) / ≥50% reduction in 3-month average of monthly migraine days, responder n (%): mITT; for decrease in mean monthly headache days / decrease in monthly migraine days: 12 weeks; for decrease in mean monthly headache days / decrease in monthly migraine days / decrease in mean monthly acute medication use days: given as decrease; for decrease in mean monthly acute medication use days: across 12 weeks; for proportion of participants who reported a migraine day: first full day after study drug administration; for LS mean change from baseline in mean headache days / LS mean reduction from baseline in mean cumulative headache hours: first treatment period; for LS mean change from baseline in acute medication use days / LS mean change from baseline in moderate/severe headache days: first treatment period (weeks 1-4); for Mean change from baseline in weekly migraine days: first week of treatment; for odds ratio vs placebo for reporting a migraine: post dose day 1
Description: Study A: A phase 3, multicenter, randomized, double-blind, placebo-controlled, parallel-group study was conducted to evaluate the efficacy, safety, and tolerability of oral atogepant for the prevention of migraine in participants with episodic migraine (EM).
This study comprised a 4-week screening and baseline period, a 12-week double-blind treatment period, and a 4-week follow-up period. The total study duration was 20 weeks.
Adults 18 to 80 years of age with 4 to 14 migraine days per month in the 3 months prior to visit 1, and 4 to 14 migraine days during the 28-day baseline period per electronic Diary, were allowed to enroll. Inclusion criteria included at least a 1-year history of migraine with or without aura consistent with a diagnosis, diagnosed as specified in the International Classification of Headache Disorders, 3rd edition, version (ICHD-3), and the age of the participant at the time of migraine onset was <50 years. Exclusion criteria included a history of migraine accompanied by diplopia or decreased level of consciousness or retinal migraine; a current diagnosis of chronic migraine, new persistent daily headache, trigeminal autonomic cephalgia (e.g., cluster headache), or painful cranial neuropathy as defined by ICHD-3, or if they averaged 15 or more migraine days per month across the 3 months prior to Visit 1 or during the 28-day baseline period; a history of an inadequate response to >4 medications (2 of which have different mechanisms of action) prescribed for the treatment of migraine; and participants with clinically significant hematologic, endocrine, cardiovascular, pulmonary, renal, hepatic, gastrointestinal, or neurologic disease. Use of opioids or barbiturate on more than 2 days per month, triptans or ergots on 10 or more days per month, or simple analgesics (e.g., aspirin, non-steroidal anti-inflammatory drugs, acetaminophen) on 15 or more days per month in the 3 months prior to Visit 1 or during the 28-day baseline period were also excluded. Use of barbiturates was also excluded 30 days prior to screening and throughout the duration of the trial.
Randomization was stratified based on prior exposure (yes/no) to a migraine prevention medication with proven efficacy, such as antiepileptics, tricyclic antidepressants, beta-blockers, calcium channel blocker, angiotensin receptor blocker or converting enzyme inhibitor, or serotonin-norepinephrine reuptake inhibitors. Approximately 70% of randomized participants took at least one prior migraine prevention medication with proven efficacy. Participants were not on concurrent medication during the study.
A total of 910 patients were randomized 1:1:1:1 to one of the four treatment groups (10 mg QD, 30 mg QD, 60 mg QD, or placebo). Efficacy analyses were based on the Modified Intent-to-Treat Population (mITT) of 873 patients.
All participants were instructed to take trial treatment orally at approximately the same time once daily for 12 weeks. To maintain the blinding, all participants took 3 tablets of trial treatment provided in identical blister cards: placebo (placebo 10 mg/placebo 30 mg/placebo 60 mg), atogepant 10 mg (atogepant 10 mg/placebo 30 mg/placebo 60 mg), atogepant 30 mg (placebo 10 mg, atogepant 30 mg, placebo 60 mg), and atogepant 60 mg (placebo 10 mg/placebo 30 mg/atogepant 60 mg). Participants, site personnel, and trial sponsor personnel were blinded to the treatment assignment. Tablet formulations for CGRP compounds are described, for example, in U.S. Pat. No. 10,117,936.
Participants were allowed to take acute treatments for migraine which included triptans, ergot derivatives, opioids, acetaminophen, non-steroidal anti-inflammatory drugs, and antiemetic agents. Participants were not allowed to take any preventive treatments for migraine 30 days prior to visit 1 and throughout the trial.
Efficacy assessments were recorded by the participant in an electronic diary at home or via eTablet at the trial site during clinic visits. […]

[1] = range across atogepant 10, 30, 60 mg groups

C[C@@H]1[C@H](c2c(F)ccc(F)c2F)C[C@H](NC(=O)c2cnc3c(c2)C[C@@]2(C3)C(=O)Nc3ncccc32)C(=O)N1CC(F)(F)F [atogepant]
100% reduction in 3-month average of monthly migraine days, responder n (%) (10 mg QD): 17 (7.9) % | ≥25% reduction in 3-month average of monthly migraine days, responder n (%) (10 mg QD): 73.4% | ≥75 reduction in 3-month average of monthly migraine days, responder n (%) (10 mg QD): 30.4% | Change from baseline in mean monthly acute medication use days, LS mean change (SE) (10 mg QD): -3.66 days | Change from baseline in mean monthly headache days, LS mean change (SE) (10 mg QD): -3.94 days | Change from baseline in mean monthly migraine days, LS mean change (SE) (10 mg QD): -3.69 days | Mean monthly acute medication use days, LSMD vs. placebo (95% CI) (10 mg QD): -1.31 days | Mean monthly headache days, LSMD vs. placebo (95% CI) (10 mg QD): -1.42 days | Mean monthly migraine days, LSMD vs. placebo (95% CI) (10 mg QD): -1.21 days | ≥50% reduction in 3-month average of monthly migraine days, odds ratio vs. placebo (95% CI) (10 mg QD): 3.06 | ≥50% reduction in 3-month average of monthly migraine days, responder n (%) (10 mg QD): 55.6% | ≥50% reduction in 3-month average of monthly migraine days, responder n (%) (10 mg QD, listed as Atogepant): (55.6) % | decrease in mean monthly headache days (10 mg): 3.94 days | decrease in monthly migraine days (10 mg): 3.69 days | decrease in mean monthly acute medication use days (10 mg): 3.66 days | proportion of participants who reported a migraine day (10 mg): 14.1% | LS mean change from baseline in mean headache days (10 mg): −3.2 | LS mean reduction from baseline in mean cumulative headache hours (10 mg): -23.3 h | LS mean change from baseline in acute medication use days (10 mg): −3.3 | LS mean change from baseline in moderate/severe headache days (10 mg): −3.0 | Mean change from baseline in weekly migraine days (10 mg): −0.77 | odds ratio vs placebo for reporting a migraine (10 mg): 0.49 | mean change from baseline in mean monthly migraine days (10 mg, weeks 1-4): −3.1 | mean change from baseline in mean monthly migraine days (10 mg, weeks 5-8): −3.7 | mean change from baseline in mean monthly migraine days (10 mg, weeks 9-12): −4.2 | 100% reduction in 3-month average of monthly migraine days, responder n (%) (30 mg QD): 11 (4.0) % | ≥25% reduction in 3-month average of monthly migraine days, responder n (%) (30 mg QD): 172 (77.1) % | ≥75 reduction in 3-month average of monthly migraine days, responder n (%) (30 mg QD): 66 (29.6) % | Change from baseline in mean monthly acute medication use days, LS mean change (SE) (30 mg QD): -3.68 days | Change from baseline in mean monthly headache days, LS mean change (SE) (30 mg QD): -4.04 days | Change from baseline in mean monthly migraine days, LS mean change (SE) (30 mg QD): -3.86 days | Mean monthly acute medication use days, LSMD vs. placebo (95% CI) (30 mg QD): -1.33 days | Mean monthly headache days, LSMD vs. placebo (95% CI) (30 mg QD): -1.53 days | Mean monthly migraine days, LSMD vs. placebo (95% CI) (30 mg QD): -1.38 days | ≥50% reduction in 3-month average of monthly migraine days, odds ratio vs. placebo (95% CI) (30 mg QD): 3.53 | ≥50% reduction in 3-month average of monthly migraine days, responder n (%) (30 mg QD): 58.7% | ≥50% reduction in 3-month average of monthly migraine days, responder n (%) (30 mg QD, listed as Atogepant): (58.7) % | decrease in mean monthly headache days (30 mg): 4.04 days | decrease in monthly migraine days (30 mg): 3.86 days | decrease in mean monthly acute medication use days (30 mg): 3.68 days | proportion of participants who reported a migraine day (30 mg): 10.8% | LS mean change from baseline in mean headache days (30 mg): −3.4 | LS mean reduction from baseline in mean cumulative headache hours (30 mg): -23.6 h | LS mean change from baseline in acute medication use days (30 mg): −3.4 | LS mean change from baseline in moderate/severe headache days (30 mg): −3.2 | Mean change from baseline in weekly migraine days (30 mg): −0.94 | odds ratio vs placebo for reporting a migraine (30 mg): 0.33 | mean change from baseline in mean monthly migraine days (30 mg, weeks 1-4): −3.4 | mean change from baseline in mean monthly migraine days (30 mg, weeks 5-8): −3.9 | mean change from baseline in mean monthly migraine days (30 mg, weeks 9-12): −4.3 | 100% reduction in 3-month average of monthly migraine days, responder n (%) (60 mg QD): 17 (7.7) % | ≥25% reduction in 3-month average of monthly migraine days, responder n (%) (60 mg QD): 180 (81.1) % | ≥75 reduction in 3-month average of monthly migraine days, responder n (%) (60 mg QD): 84 (37.8) % | Change from baseline in mean monthly acute medication use days, LS mean change (SE) (60 mg QD): -3.85 days | Change from baseline in mean monthly headache days, LS mean change (SE) (60 mg QD): -4.23 days | Change from baseline in mean monthly migraine days, LS mean change (SE) (60 mg QD): -4.20 days | Mean monthly acute medication use days, LSMD vs. placebo (95% CI) (60 mg QD): -1.50 days | Mean monthly headache days, LSMD vs. placebo (95% CI) (60 mg QD): -1.71 days | Mean monthly migraine days, LSMD vs. placebo (95% CI) (60 mg QD): -1.72 days | ≥50% reduction in 3-month average of monthly migraine days, odds ratio vs. placebo (95% CI) (60 mg QD): 3.82 | ≥50% reduction in 3-month average of monthly migraine days, responder n (%) (60 mg QD): 60.8% | ≥50% reduction in 3-month average of monthly migraine days, responder n (%) (60 mg QD, listed as Atogepant): (60.8) % | decrease in mean monthly headache days (60 mg): 4.23 days | decrease in monthly migraine days (60 mg): 4.20 days | decrease in mean monthly acute medication use days (60 mg): 3.85 days | proportion of participants who reported a migraine day (60 mg): 12.3% | LS mean change from baseline in mean headache days (60 mg): −3.8 | LS mean reduction from baseline in mean cumulative headache hours (60 mg): -25.1 h | LS mean change from baseline in acute medication use days (60 mg): −3.7 | LS mean change from baseline in moderate/severe headache days (60 mg): −3.8 | Mean change from baseline in weekly migraine days (60 mg): −1.03 | odds ratio vs placebo for reporting a migraine (60 mg): 0.39 | mean change from baseline in mean monthly migraine days (60 mg, weeks 1-4): −3.9 | mean change from baseline in mean monthly migraine days (60 mg, weeks 5-8): −4.2 | mean change from baseline in mean monthly migraine days (60 mg, weeks 9-12): −4.4 | times more likely than placebo to achieve ≥50% reduction in the 12-week average of MMDs (atogepant treated participants (all doses)): ≥ 3 times | participants with 100% reduction in MMDs across 12 weeks [1]: 5%-8% | participants with ≥25% reduction in MMDs across 12 weeks [1]: 73%-81% | participants with ≥50% reduction in mean MMDs across 12 weeks [1]: 56%-61% and 56-61% | participants with ≥75% reduction in MMDs across 12 weeks [1]: 30%-38%
